This experiment has as its target T1, Xanthine oxidase (XOD) (Bos taurus, UniProt P80457).
T1 construct: gene XDH
The experiment can be described thus: spectrophotometric XOD inhibition assay at […] nm with xanthine substrate, cow milk enzyme. Format: biochemical.

T1 sequence (P80457 2-1332): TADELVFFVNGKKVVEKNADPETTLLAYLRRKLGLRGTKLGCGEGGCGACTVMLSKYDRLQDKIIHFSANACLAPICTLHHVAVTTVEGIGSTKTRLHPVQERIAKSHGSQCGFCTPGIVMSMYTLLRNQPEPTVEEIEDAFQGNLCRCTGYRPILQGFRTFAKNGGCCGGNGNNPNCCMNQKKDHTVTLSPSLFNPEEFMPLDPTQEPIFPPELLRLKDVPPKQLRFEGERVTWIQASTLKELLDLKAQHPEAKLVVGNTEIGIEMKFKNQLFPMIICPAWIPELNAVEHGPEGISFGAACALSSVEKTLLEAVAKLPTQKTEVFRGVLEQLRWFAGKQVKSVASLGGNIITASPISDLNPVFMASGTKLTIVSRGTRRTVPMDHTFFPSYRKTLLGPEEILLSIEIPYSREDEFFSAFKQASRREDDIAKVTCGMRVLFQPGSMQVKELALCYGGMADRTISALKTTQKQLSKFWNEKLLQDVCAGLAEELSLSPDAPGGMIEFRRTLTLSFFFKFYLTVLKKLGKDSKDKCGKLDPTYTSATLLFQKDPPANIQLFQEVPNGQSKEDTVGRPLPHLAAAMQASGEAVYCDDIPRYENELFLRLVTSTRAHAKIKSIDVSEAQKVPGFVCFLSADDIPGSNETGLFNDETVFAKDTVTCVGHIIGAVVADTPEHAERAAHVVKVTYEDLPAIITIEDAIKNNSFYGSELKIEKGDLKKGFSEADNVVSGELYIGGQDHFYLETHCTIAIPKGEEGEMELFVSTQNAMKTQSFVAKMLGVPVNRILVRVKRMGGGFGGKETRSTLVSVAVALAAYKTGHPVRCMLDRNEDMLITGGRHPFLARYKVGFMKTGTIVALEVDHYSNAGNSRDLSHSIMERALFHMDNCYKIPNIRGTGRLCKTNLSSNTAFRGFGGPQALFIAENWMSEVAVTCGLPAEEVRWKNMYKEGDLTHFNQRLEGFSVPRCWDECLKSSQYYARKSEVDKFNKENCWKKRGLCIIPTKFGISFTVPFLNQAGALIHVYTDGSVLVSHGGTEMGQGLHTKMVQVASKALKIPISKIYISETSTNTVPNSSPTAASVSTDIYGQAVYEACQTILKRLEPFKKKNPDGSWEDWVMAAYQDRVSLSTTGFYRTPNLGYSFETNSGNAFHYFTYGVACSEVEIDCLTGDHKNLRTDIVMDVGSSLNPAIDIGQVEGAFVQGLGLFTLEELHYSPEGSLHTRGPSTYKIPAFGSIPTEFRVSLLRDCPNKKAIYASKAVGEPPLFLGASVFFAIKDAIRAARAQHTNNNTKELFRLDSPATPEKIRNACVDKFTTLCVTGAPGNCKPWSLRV

As to `COc1ccc2c(c1OC)CN1CCc3cc4c(cc3C1=C2)OCO4` [DHB, Dihydroberberine], the IC50 (commonly the concentration that inhibits the measured activity by half) turned out to be 34.4 ± 2.84 µM.

The record behind these values is publication PMC8093860, “Anti-Hyperuricemic and Nephroprotective Effects of Dihydroberberine in Potassium Oxonate- and Hypoxanthine-Induced Hyperuricemic Mice” (Frontiers in Pharmacology, 2021).
